From PMC8991007, “Benzylic Dehydroxylation of Echinocandin Antifungal Drugs Restores Efficacy against Resistance Conferred by Mutated Glucan Synthase” (Journal of the American Chemical Society, 2022)
Values after ≈ are worked out from the molar mass of the structure shown. *1 amine or outer side, *2 acyl side, *3 side chain or, on linkers, in order; H or OH if unused. Where a SMILES comes first, the peptide text is derived from it. Bridges are numbered along the chain shown (N, C = ends). [ ]: non-standard residue; d: D form. The star is where a group is joined. pTerphenylCO(4''-OnC5H11) = CCCCCOc1ccc(-c2ccc(-c3ccc(C(=O)*)cc3)cc2)cc1; Orn(4R-OH,5R-OH) = O=C([C@H](C[C@@H](O)[C@@H](O)N[*:3])N[*:1])[*:2]; hTyr(3S-OH,4S-OH) = N[C@H](C(=O)O)[C@H](O)[C@@H](O)c1ccc(O)cc1; Pro(3S-OH,4S-Me) = C[C@H]1CN[C@H](C(=O)O)[C@H]1O; hTyr(3R-OH) = N[C@H](C(=O)O)[C@H](O)Cc1ccc(O)cc1; Hyp = O=C(O)[C@@H]1C[C@@H](O)CN1

Columns and labels:
[1] = system: Hs 578T; assay: Phenotypic viability assay of GFP reporter cell line; assay type: cell-based; details: Homo sapiens; Hs 578T expressing GFP, 24 h, mean ± SD
Protocol: (§1) In this analysis, we used HCT-116, a human colorectal carcinoma cell line; UACC-62, a human melanoma cell line; Hs 578T, a human mammary gland carcinoma cell line, and SF-295, a human glioblastoma cell line. […] The highest concentration of the echinocandins used for the cell viability tests was determined based on the reported maximal plasma concentrations (Cmax) of ANF and RZF measured in humans. A Cmax of approximately 7 μM was measured during a pharmacokinetic study of ANF in patients with candidemia or invasive candidiasis who were treated with a 200 mg loading dose on day 1, followed by a daily 100 mg maintenance dose.[64]
(§2) Human cell lines HCT-116, UACC-62, Hs 578T, and SF-295 were obtained from the Life Sciences Core Facilities of the Nancy & Stephen Grand Israel National Center for Personalized Medicine. Cell lines were grown in an RPMI medium (Gibco, cat. no. 21875-034) supplemented with 10% fetal calf serum (Biological Industries, cat. no. 04-007-1A), Pen/Strep (Biological Industries, cat. no. 03-031-1B), and glutamine (Biological Industries, cat. no. 03-020-1B). GFP was introduced into cells using TALENS according to a previously reported protocol.[73] GFP cells were selected by FACS and propagated.
(§3) Assay-ready plates were designed using in-house software (CHEMPION, INCPM software development team) and prepared in 384-well Greiner plates (cat. no. 781091) using an Echo 555 Acoustic Liquid Handler (Labcyte). The final DMSO concentration in all samples was 0.4%. Prior to the experiment, cells were trypsinized and counted using a Countess cytometer. Cells were then diluted to 40,000 cells/mL in a fresh medium. Cells (50 μL/well; 2000 cells/well) were then dispensed with a Thermo Combi dispenser into plates containing predispensed compounds. After 30 min at room temperature to ensure uniform adherence of cells, the plates were moved to an automated incubator (Liconic STX44) and incubated at 37 °C. An automated confocal microscope with a 4× S Fluor lens (Molecular Devices ImageExpress) was used to acquire images of GFP-expressing cells after 24 h of incubation. Images were then analyzed using MetaExpress with a custom protocol (Custom Module Editor), and data were annotated and normalized using Genedata Screener software. Final normalized data were then loaded into CDD Vault software for comparative data visualization.

[2] = system: UACC-62; assay: cells; assay type: cell-based; details: Homo sapiens; UACC-62 expressing GFP, 24 h, mean ± SD; read-out: IC50 (cell viability)
Protocol: as §1, §2, §3

[3] = system: SF-295; assay: cells; assay type: cell-based; details: Homo sapiens; SF-295 expressing GFP, 24 h, mean ± SD; read-out: IC50 (cell viability)
Protocol: as §1, §2, §3

[4] = system: HCT-116; assay: cells; assay type: cell-based; details: Homo sapiens; HCT-116 expressing GFP, 24 h, mean ± SD; read-out: IC50 (cell viability)
Protocol: as §1, §2, §3

[5] = system: C. albicans; assay: Minimum inhibitory concentration broth double-dilution assay; assay type: cell-based, Candida albicans; details: for MIC: 24 h, 30 °C
Protocol: (§4) The antifungal activities of compounds 1 and 2 were evaluated against a panel of 50 strains of C. albicans and C. glabrata (Table S4), including echinocandin-resistant strains that were constructed by introducing mutations within and near the defined hotspots in the FKS1 and/or FKS2 genes.[27] To evaluate antifungal activity, we determined MIC values. The MIC was defined as the lowest drug concentration that led to turbidity (measured at 600 nm) of less than or equal to 35% of that of the untreated culture. As controls, we tested CSF, MCF, ANF, and RZF.
(§5) All of the tested compounds were dissolved in anhydrous DMSO to a concentration of 5 mg/mL. Candida strains were streaked from a glycerol stock onto YPAD agar plates and grown for 24 h at 30 °C. Colonies were suspended in 1 mL of PBS and diluted to an O.D. of 0.01 at 600 nm with YPAD broth and added into flat-bottom 96-well microplates (Corning) containing a gradient of twofold dilutions per tested compound with concentrations ranging from 64 to 0.0009 μg/mL. Control wells with no drug and blank wells without yeast cells containing YPAD only were also prepared. […] Each concentration was tested in triplicate, and results were confirmed by at least two independent sets of experiments.

[6] = system: C. glabrata; assay: as above; assay type: cell-based, Candida glabrata; details: for MIC: 24 h, 30 °C
Protocol: as §4, §5

[7] = #2 C. albicans DPL1015 (DP-A15)
[8] = #3 C. albicans DPL1016 (DP-A15-10)

Compound: CCCCCOc1ccc(-c2ccc(-c3ccc(C(=O)N[C@H]4C[C@@H](O)[C@@H](O)NC(=O)[C@@H]5[C@@H](O)[C@@H](C)CN5C(=O)[C@H]([C@@H](C)O)NC(=O)[C@H]([C@H](O)[C@@H](O)c5ccc(O)cc5)NC(=O)[C@@H]5C[C@@H](O)CN5C(=O)[C@H]([C@@H](C)O)NC4=O)cc3)cc2)cc1 [ANF, anidulafungin] ({pTerphenylCO(4''-OnC5H11)}-[Orn(4R-OH,5R-OH)]T[Hyp][hTyr(3S-OH,4S-OH)]T[Pro(3S-OH,4S-Me)]; lactam 1-C)
- IC50 [1]: > 40 µM
- IC50 [2]: 34.5 ± 4.15 µM
- IC50 [3]: 19.3 ± 1.97 µM
- IC50 [4]: > 40 µM
- MIC ([5]; #1 C. albicans Sc5314): 0.004 µg/mL (≈ 0.00351 µM)
- MIC [5, 7]: 0.063 µg/mL (≈ 0.0553 µM)
- MIC [5, 8]: 4 µg/mL (≈ 3.51 µM)
- MIC ([5]; #4 C. albicans T-2068 (DP-C42)): 2 µg/mL (≈ 1.75 µM)
- MIC ([5]; #5 C. albicans T-2069 (DP-85)): 2 µg/mL (≈ 1.75 µM)
- MIC ([5]; #6 C. albicans (DP-89)): 2 µg/mL (≈ 1.75 µM)
- MIC ([5]; #7 C. albicans T-2076 (DP-194)): 0.5 µg/mL (≈ 0.438 µM)
- MIC ([5]; #8 C. albicans T-2077 (DP-205)): 0.5 µg/mL (≈ 0.438 µM)
- MIC ([6]; #9 C. glabrata EF1620): 0.008 µg/mL (≈ 0.00702 µM)
- MIC ([6]; #10 C. glabrata TGL00277): > 64 µg/mL
- MIC ([6]; #11 C. glabrata TGL00275): 4 µg/mL (≈ 3.51 µM)
- MIC ([6]; #12 C. glabrata CST78): 0.004 µg/mL (≈ 0.00351 µM)
- MIC ([6]; #13 C. glabrata TGL00265): 4 µg/mL (≈ 3.51 µM)
- MIC ([6]; #14 C. glabrata TGL00264): 32 µg/mL (≈ 28.1 µM)
- MIC ([6]; #15 C. glabrata TGL00263): 2 µg/mL (≈ 1.75 µM)
- MIC ([6]; #16 C. glabrata TGL00065): 8 µg/mL (≈ 7.02 µM)
- MIC ([6]; #17 C. glabrata CST34): 0.008 µg/mL (≈ 0.00702 µM)
- MIC ([6]; #18 C. glabrata TGL00258): > 64 µg/mL
- MIC ([6]; #19 C. glabrata TGL00256): 2 µg/mL (≈ 1.75 µM)
- MIC ([6]; #20 C. glabrata TGL00107): > 64 µg/mL
- MIC ([6]; #21 C. glabrata TGL00056): > 64 µg/mL
- MIC ([6]; #22 C. glabrata M12): 0.002 µg/mL (≈ 0.00175 µM)
- MIC ([6]; #23 C. glabrata TGL00270): 4 µg/mL (≈ 3.51 µM)
- MIC ([6]; #24 C. glabrata TGL00269): 0.25 µg/mL (≈ 0.219 µM)
- MIC ([6]; #25 C. glabrata TGL00268): > 64 µg/mL
- MIC ([6]; #26 C. glabrata TGL00268): > 64 µg/mL
- MIC ([6]; #27 C. glabrata EB0911): 0.004 µg/mL (≈ 0.00351 µM)
- MIC ([6]; #28 C. glabrata TGL00261): 2 µg/mL (≈ 1.75 µM)
- MIC ([6]; #29 C. glabrata TGL00109): > 64 µg/mL
- MIC ([6]; #30 C. glabrata TGL00259): 16 µg/mL (≈ 14 µM)

Compound: CCCCCOc1ccc(-c2ccc(-c3ccc(C(=O)N[C@H]4C[C@@H](O)[C@@H](O)NC(=O)[C@@H]5[C@@H](O)[C@@H](C)CN5C(=O)[C@H]([C@@H](C)O)NC(=O)[C@H]([C@H](O)Cc5ccc(O)cc5)NC(=O)[C@@H]5C[C@@H](O)CN5C(=O)[C@H]([C@@H](C)O)NC4=O)cc3)cc2)cc1 [Compound 1, dehydroxy-ANF] ({pTerphenylCO(4''-OnC5H11)}-[Orn(4R-OH,5R-OH)]T[Hyp][hTyr(3R-OH)]T[Pro(3S-OH,4S-Me)]; lactam 1-C)
- IC50 [1]: > 40 µM
- IC50 [2]: > 40 µM
- IC50 [3]: 17.5 ± 1.57 µM
- IC50 [4]: > 40 µM
- MIC ([5]; #1 C. albicans Sc5314): 0.008 µg/mL (≈ 0.00712 µM)
- MIC [5, 7]: 0.031 µg/mL (≈ 0.0276 µM)
- MIC [5, 8]: 1 µg/mL (≈ 0.889 µM)
- MIC ([5]; #4 C. albicans T-2068 (DP-C42)): 0.25 µg/mL (≈ 0.222 µM)
- MIC ([5]; #5 C. albicans T-2069 (DP-85)): 0.5 µg/mL (≈ 0.445 µM)
- MIC ([5]; #6 C. albicans (DP-89)): 1 µg/mL (≈ 0.889 µM)
- MIC ([5]; #7 C. albicans T-2076 (DP-194)): 0.5 µg/mL (≈ 0.445 µM)
- MIC ([5]; #8 C. albicans T-2077 (DP-205)): 0.125 µg/mL (≈ 0.111 µM)
- MIC difference between ANF and dehydroxy derivative 1 (ratio MIC (ANF)/MIC (1)) ([5]; C. albicans strain 4, Fks1 phenylalanine 641 to serine): 8 fold
- MIC ([6]; #9 C. glabrata EF1620): 0.004 µg/mL (≈ 0.00356 µM)
- MIC ([6]; #10 C. glabrata TGL00277): 8 µg/mL (≈ 7.12 µM)
- MIC ([6]; #11 C. glabrata TGL00275): 8 µg/mL (≈ 7.12 µM)
- MIC ([6]; #12 C. glabrata CST78): 0.002 µg/mL (≈ 0.00178 µM)
- MIC ([6]; #13 C. glabrata TGL00265): 1 µg/mL (≈ 0.889 µM)
- MIC ([6]; #14 C. glabrata TGL00264): > 64 µg/mL
- MIC ([6]; #15 C. glabrata TGL00263): 1 µg/mL (≈ 0.889 µM)
- MIC ([6]; #16 C. glabrata TGL00065): 16 µg/mL (≈ 14.2 µM)
- MIC ([6]; #17 C. glabrata CST34): 0.002 µg/mL (≈ 0.00178 µM)
- MIC ([6]; #18 C. glabrata TGL00258): 32 µg/mL (≈ 28.5 µM)
- MIC ([6]; #19 C. glabrata TGL00256): 0.25 µg/mL (≈ 0.222 µM)
- MIC ([6]; #20 C. glabrata TGL00107): > 64 µg/mL
- MIC ([6]; #21 C. glabrata TGL00056): > 64 µg/mL
- MIC ([6]; #22 C. glabrata M12): 0.002 µg/mL (≈ 0.00178 µM)
- MIC ([6]; #23 C. glabrata TGL00270): 1 µg/mL (≈ 0.889 µM)
- MIC ([6]; #24 C. glabrata TGL00269): 0.063 µg/mL (≈ 0.056 µM)
- MIC ([6]; #25 C. glabrata TGL00268): > 64 µg/mL
- MIC ([6]; #26 C. glabrata TGL00268): > 64 µg/mL
- MIC ([6]; #27 C. glabrata EB0911): 0.002 µg/mL (≈ 0.00178 µM)
- MIC ([6]; #28 C. glabrata TGL00261): 0.25 µg/mL (≈ 0.222 µM)
- MIC ([6]; #29 C. glabrata TGL00109): 64 µg/mL (≈ 56.9 µM)
- MIC ([6]; #30 C. glabrata TGL00259): 4 µg/mL (≈ 3.56 µM)
- MIC ([6]; #31 C. glabrata EF1237): 0.001 µg/mL (≈ 0.000889 µM)
- MIC ([6]; #36 C. glabrata F15): 0.002 µg/mL (≈ 0.00178 µM)
- MIC ([6]; #38 C. glabrata CBS138 (ATCC 2001)): 0.004 µg/mL (≈ 0.00356 µM)
- MIC ([6]; #41 C. glabrata P35_2): 0.002 µg/mL (≈ 0.00178 µM)
- MIC ([6]; #43 C. glabrata SLL2glab): 0.002 µg/mL (≈ 0.00178 µM)
- MIC ([6]; #46 C. glabrata BG2): 0.001 µg/mL (≈ 0.000889 µM)
- increase in potency on dehydroxylation of ANF (ratio MIC (ANF)/MIC (1)) ([6]; C. glabrata strain 28, Fks2 phenylalanine 659 deleted): 8 fold
